Experimental data: US11123388B2, “Composition for preventing and treating inflammatory bowel disease” (GENUONE SCIENCES INC., priority 2015, dated 2021)
Several values for one entry are separate records, joined by “and”; a condition that tells them apart may be missing. Identical values can stand only once.

Legend:
[1] = tested on: dextran sodium sulfate (DSS)-induced colitis in C57BL/6 female mice; assay: Amelioration of colitis in DSS animal model; format: in vivo; set-up: DAI (disease activity index): scale not given here; Colon Length: unit not given here
Method: 7. Effect of Ameliorating Colitis in DSS Animal Model To construct an experimental model of inflammatory bowel disease, 6-week old C57BL/6 female mice (17 g to 19 g) were purchased from DBL Co., Ltd. (Eumseong, Korea), and the mice were given ad libitum access to solid feeds and water and allowed to adapt to a controlled environment with constant humidity (50%), constant temperature (22° C.), and 12-hour light-dark cycle for 1 week. […] The control drug (5-ASA) and extracts were dissolved in 0.5% carboxymethyl cellulose (CMC), and then orally administered once daily for 7 days along with 3% dextran sodium sulfate (DSS), and the normal control group and the colitis-induced group were orally administered with 0.5% CMC. The colitis-induced group, the control drug-treated group, and the extract-treated group were given ad libitum access to 3% DSS for 1 week, and the normal control group was given ad libitum access to water. Then, the mice were sacrificed on the 8th day, and each of their colons was excised from the cecum to the region immediately before the anus, and the length and external appearance of the excised colon were examined to determine the degree of weight loss, diarrhea, and […], and the results were scored according to the criteria.

[2] = tested on: U937 cell adhesion to the HT-29 intestinal epithelial cells; assay: Inhibition of monocyte (U937) adhesion to TNF-α-stimulated intestinal epithelial cells (HT-29); format: cell-based, human; conditions: 5-ASA 20 mM (positive control), TNF-α 100 ng/mL, 24 h
Method: 3. Effect of Inhibiting Monocyte Adhesion Ability in Intestinal Epithelial Cells Human intestinal epithelial cell line HT-29 cells (American Type Culture Collections, Rockville, Mass., USA) and human monocyte cell line U937 cells (ATCC, Rockville, Mass., USA) were cultured in RPMI 1640 containing fetal bovine serum (FBS) and 1% penicillin/streptomycin, and the cell line was maintained under the environment of 95% air and 5% CO2 at 37° C. […] The HT-29 cells (2×10^6 cells/well), which were cultured in a 48-well plate for 24 hours, were simultaneously treated with a extract (100 μg/mL) while treating with TNF-α (100 ng/mL), and cultured for 24 hours. In particular, 20 mM 5-aminosalicylic acid (5-ASA) was used as the positive control. Then, HT-29 cells were co-cultured along with U937 cells (5×10^5 cells/well), which were labeled with BCECF/AM at 37° C. for 30 minutes. Unattached U937 cells were removed and washed twice with PBS. The HT-29 cells to which U937 cells were attached were dissolved using 0.1% Triton X-100 which was dissolved in 0.1 mol/L Tris. The fluorescence of these lysates was measured using the luminance at 485 nm and 520 nm using a microplate reader (TECAN, Gr, Austria).

myeloperoxidase (MPO) = assay: Myeloperoxidase (MPO) activity in colon tissue, TNBS animal model; format: in vivo; conditions: TNBS mice, 200 mg/kg
Method: 6. Effect of Inhibiting Oxidative Stress Through Measurement of Myeloperoxidase (MPO) Activity
200 μL of lysis buffer was added to 100 mg of colon tissue collected at the time of autopsy and homogenized and the supernatant obtained by centrifugation at 10,000 rpm for 20 minutes was used. First, capture antibody of MPO was added into a 96-well ELISA plate and allowed to react overnight. The plate was washed 6 times with 1×PBS (PBS-T) containing 0.05% Tween-20, and blocked with 1× assay diluent solution containing 2% BSA at room temperature for 1 hour. […] With respect to the levels of reactions of the plate, the absorbance was measured at 450 nm using a microplate reader (TECAN, Gr, Austria).
To construct an experimental model of inflammatory bowel disease, 7-week old ICR female mice (25 g to 27 g) were purchased from DBL Co., Ltd. (Eumseong, Korea), and the mice were given ad libitum access to solid feeds and water and allowed to adapt to a controlled environment with constant humidity (50±10%), constant temperature (22±2° C.), and 12-hour light-dark cycle for 1 week. […] Each of their colons was excised from the cecum to the region immediately before the anus, and the length and external appearance of the excised colon were examined to determine the degree of weight loss, constipation, and intestinal edema, and the results were scored according to the criteria.

[3] = tested on: NO production in HT-29 cells; assay: Inhibition of NO production in HT-29 cells (Griess); format: cell-based, human; conditions: 48 h
Method: 2. Effect of Inhibition of NO Production Human intestinal epithelial cell line HT-29 cells (American Type Culture Collections, Rockville, Mass., USA) were cultured in Dulbecco's Modified Eagle's Medium (DMEM) along with 10% Fatal bovine serum (FBS), 1% Antibiotic-Antimycotic (GIBCO, Cat No. 15240-062) in 100 mm/60.1 cm^2 culture dish at 37° C., 5% CO2 conditions. […] The supernatant of cell was collected and used as a sample for the test. The test analysis was performed using the Total NO/Nitrite/Nitrate ELISA kit (R&D systems, Cat. #KGE001) according to the manufacturer's manual. Briefly, the test was performed in the following sequence: the cell culture which was grown after treatment with the sample was dispensed into a 96-well plate in an amount of 50 μL/well, treated with Griess Reagent, reacted at room temperature for 10 minutes, and the absorbance was measured at 540 nm.

[4] = tested on: TNF-α production in LPS-treated macrophages; assay: Inhibition of LPS-induced TNF-α production in macrophages (ELISA); format: cell-based; conditions: Macrophage, LPS 1 μg/mL, read-out: Effect of inhibiting TNF-α (%)
Method: 4. Effect of Inhibiting TNF-α Production The macrophages (American Type Culture Collections, Rockville, Mass., USA) cultured in a 24-well plate were pretreated with LPS (1 μg/mL) for 1 hour, treated with a extract (100 μg/mL), 20 mM 5-ASA (100 μg/mL) and 20 μM dexamethasone, and cultured for 24 hours, and the supernatant of cell was used for the experiment. First, capture antibody of TNF-α was added into a 96-well ELISA plate and allowed to react overnight. The plate was washed 6 times with 1×PBS (PBS-T) containing 0.05% Tween-20, and blocked with 1× assay diluent solution containing 2% BSA at room temperature for 1 hour. The plate was washed 6 times with 1×PBS-T and the supernatant or TNF-α standard protein was added thereto and allowed to react at room temperature for 2 hours. The plate was again was washed 6 times with 1×PBS-T, detection antibody was added thereto, and allowed to react at room temperature for 2 hours. The plate was again was washed 6 times with 1×PBS-T, avidin-HRP solution was added thereto, and allowed to react at room temperature for 30 minutes. […] With respect to the levels of reactions of the plate, the absorbance was measured at 450 nm using a microplate reader (TECAN, Gr, Austria).

[5] = tested on: TNBS-induced Crohn's disease in ICR female mice; assay: Amelioration of Crohn's disease in TNBS animal model; format: in vivo
Method: 8. Effect of Ameliorating Crohn's Disease in TNBS Animal Model To construct an experimental model of inflammatory bowel disease, 7-week old ICR female mice (25 g to 27 g) were purchased from DBL Co., Ltd. (Eumseong, Korea), and the mice were given ad libitum access to solid feeds and water and allowed to adapt to a controlled environment with constant humidity (50±10%), constant temperature (22±2° C.), and 12-hour light-dark cycle for 1 week. […] The mice were fasted for 24 hours before injection of TNBS. […] The control drug (5-ASA) and extracts were dissolved in 0.5% carboxymethyl cellulose (CMC), and orally administered once daily for 5 days. The normal control group and the colitis-induced group were orally administered with 0.5% CMC. After 5 days of oral administration, mice were fasted until the next day and sacrificed. Each of their colons was excised from the cecum to the region immediately before the anus, and the length and external appearance of the excised colon were examined to determine the degree of weight loss, constipation, and intestinal edema, and the results were scored according to the criteria.

[6] = tested on: IL-6 production in LPS-treated macrophages; assay: Inhibition of LPS-induced IL-6 production in macrophages (ELISA); format: cell-based; conditions: LPS 1 μg/mL
Method: 5. Effect of Inhibiting IL-6 Production The macrophages (American Type Culture Collections, Rockville, Mass., USA) cultured in a 24-well plate were pretreated with LPS (1 μg/mL) for 1 hour, treated with a extract (50 μg/mL), 20 mM 5-ASA (50 μg/mL) and 20 μM dexamethasone, and cultured for 24 hours, and the supernatant was used for the experiment. First, capture antibody of IL-6 was added into a 96-well ELISA plate and allowed to react overnight. The plate was washed 6 times with 1×PBS (PBS-T) containing 0.05% Tween-20, and blocked with 1× assay diluent solution containing 2% BSA at room temperature for 1 hour. […] The plate was again was washed 6 times with 1×PBS-T, detection antibody was added thereto, and allowed to react at room temperature for 2 hours. The plate was again was washed 6 times with 1×PBS-T, avidin-HRP solution was added thereto, and allowed to react at room temperature for 30 minutes. The plate was again was washed 6 times with 1×PBS-T, a TMB substrate solution was added thereto and allowed to react at room temperature for final 30 minutes, and a reaction stopping solution (1 M H3PO4) was added thereto to stop the reaction. With respect to the levels of reactions of the plate, the absorbance was measured at 450 nm using a microplate reader (TECAN, Gr, Austria).

[7] = oral once daily 7 days, control drug 5-ASA 200 mg/kg, listed as Control drug-treated Group
[8] = 200 mg/kg oral once daily 5 days, control drug 5-ASA 200 mg/kg, listed as Control drug-treated Group
[9] = 200 mg/kg oral once daily 5 days, control drug 5-ASA 200 mg/kg, listed as control-drug treated group

Nc1ccc(O)c(C(=O)O)c1 [5-ASA, 5-aminosalicylic acid]
effect of improvement of disease activity index compared to the colitis-induced group [1]: 45%
increase of the colon length compared to the colitis-induced group [1]: 3.6%
recovery of intestinal mucosa (immunostaining of intestinal mucosal tissues) [1]: partially restored
Colon Length [1, 7]: 5.42 and 5.77 and 5.45 and 5.31 ± 0.16
Colon Length (cm) [1, 7]: 5.42 cm and 5.31 ± 0.16 cm
DAI (disease activity index) [1, 7]: 4.50 and 7.48 and 6.88 ± 0.44 and 5.75 and 5.33
Weight per Area (colon weight per colon length) [1, 7]: 30.66 ± 0.76 and 32.52 and 31.42
Effect of inhibiting adhesion (%) [2]: 24.48%
inhibition at 20000 µM ([2]; Homo sapiens, read-out: Effect of inhibiting adhesion (%)): 18.9%
decrease of MPO activity compared to the Crohn's disease-induced group (myeloperoxidase (MPO)): 15%
inhibitory effect against NO production [3]: 37%
inhibition at 20000 µM ([4]; 5-ASA 20 mM): 11.1%
reduction of weight of colon per colon length compared to the Crohn's disease-induced group ([5]; 200 mg/kg): almost no difference
Colon Length (cm) ([5]; 200 mg/kg oral once daily 5 days, control drug 5-ASA 200 mg/kg): 8.33 ± 0.22 cm
Colon Length [5, 8]: 8.28 and 8.33 ± 0.22
DAI (disease activity index) [5, 8]: 10.56 ± 1.40 and 8.20
Weight per Area (colon weight per colon length) [5, 8]: 67.67 ± 9.30 and 46.55
Colon Length [5, 9]: 8.27
DAI (disease activity index) [5, 9]: 6.30
Weight per Area (colon weight per colon length) [5, 9]: 48.66
effect of improvement of disease activity index compared to the Crohn's disease-induced group ([5]; 200 mg/kg, listed as Control drug-treated Group, 200 mg/kg): 7% and 9%
difference in colon weight per colon length compared to the Crohn's disease-induced group ([5]; 5-ASA 200 mg/kg): about 6.5 mg/cm
Effect of inhibiting IL-6 (%) ([6]; 5-ASA 20 mM): 67.68% and 50.98%
Effect of inhibiting IL-6 (%) ([6]; 5-ASA 20 mM, listed as 5ASA): 49.89% and 49.35%
inhibition at 20000 µM ([6]; Macrophage, 5-ASA 20 mM, read-out: Effect of inhibiting IL-6 (%)): 52.8%

C[C@@H]1C[C@H]2[C@@H]3CCC4=CC(=O)C=C[C@]4(C)[C@@]3(F)[C@@H](O)C[C@]2(C)[C@@]1(O)C(=O)CO [Dexamethasone, dexamethasone]
inhibition at 20 µM ([4]; dexamethasone 20 μM): 38.5%
inhibition at 20 µM ([6]; Macrophage, dexamethasone 20 μM, read-out: Effect of inhibiting IL-6 (%)): 49.9%
